Data on two molecules can be found in US5397787A, “Vinylene-azaindole derivatives” (Farmitalia Carlo Erba S.R.L., priority 1992, dated 1995).

This test has as its target p45 v-abl tyrosine kinase. As to the kind of experiment: Exogenous Substrate Kinase Assay: p45 v-abl kinase inhibition, (Val5)-Angiotensin II phosphorylation. Format: biochemical, Abelson murine leukemia virus. Conditions: (Val^5)-Angiotensin II 2 mM, ATP 50 μM, pH 8.0, 30° C., triplicate determinations. On the procedure: The enzyme used in our test was the p45 v-abl tyrosine kinase which represents the catalytic domain of the Abelson tyrosine kinase (isolated from the Abelson murine leukemia virus). The p45 v-abl kinase was produced and isolated as described by Wang et al. in J. Biol. Chem. 260, 64 (1985) and by Ferguson et al. in J. Biol. Chem. 260, 3652 (1985) and in Biochem. J. 257, 321 (1989).
(Val^5)-Angiotensin II phosphorylation was performed by incubation with 40 ng of purified abl-kinase and (γ-^32 P)-ATP, in 50 μl of buffer containing Tris-HCl 25 mM, pH 8.0, MgCl2 10 mM and dithiothreitol 0.1 mM (kinase buffer). The reaction mixture was incubated for the indicated time at 30° C. and the reaction stopped by adding 50 μl of 5% trichloroacetic acid.
After a brief incubation on ice, tubes were centrifuged. The supernatants were spotted on phosphocellulose paper squares (Whatman P-81) and washed extensively in acetic acid. The radioactivity bound to dried phosphocellulose squares was measured in a liquid scintillation counter. IC50 values were calculated from triplicate determinations of each experimental point. Each inhibitor was tested at concentrations ranging from […] in the presence of fixed concentrations of peptide (2 mM) and ATP (50 μM).

As a reminder, the IC50 is the concentration at which inhibition is half-maximal. Take `N#CC(=Cc1c[nH]c2ncccc12)C(N)=O` [2-cyano-3-(7-azaindol-3-yl)acrylamide]: the concentration for half-maximal inhibition (IC50) was found to be 4700 nM.

In the case of `O=C1Nc2ccccc2/C1=C/c1c[nH]c2ncccc12` [3-[(7-azaindol-3-yl)methylen]-2-oxindole, (Z)-3-[(7-azaindol-3-yl)methylen]-2-oxindole], the IC50 is 50 nM.
